The numbers were not newly measured in patent publication US8664239B2, “Tacrolimus for improved treatment of transplant patients” (Veloxis Pharmaceuticals A/S, priority 2007, dated 2014), which cites them from elsewhere.

Where two headings read alike, the source gives them in different places.

What is called bioavailability is the share of a dose that reaches the circulation, judged against a reference dose that is usually intravenous.

Experiment in series [1]: not given
This is another data set of the same source.

In the case of `C=CC[C@@H]1/C=C(\C)C[C@H](C)C[C@H](OC)[C@H]2O[C@@](O)(C(=O)C(=O)N3CCCC[C@H]3C(=O)O[C@H](/C(C)=C/[C@@H]3CC[C@@H](O)[C@H](OC)C3)[C@H](C)[C@@H](O)CC1=O)[C@H](C)C[C@@H]2OC` [Tacrolimus], under “after oral administration”, the bioavailability was at most 20%. For the same compound, the “mean time-to-peak concentration (tmax)” value (oral administration, healthy subjects or kidney or liver transplanted patients) was 1 to 2 h. Further, the solubility entry is on record as “very soluble” in series [1] (in chloroform), “freely soluble” in series [1] (in ethanol), “very soluble” in series [1] (in methanol) and “practically insoluble” in series [1] (in water).
